Our source for the EC50 values is patent publication US20260317309A1, “N-HETEROCYLIC GPCR RECEPTOR AGONISTS, PHARMACEUTICAL COMPOSITIONS COMPRISING THE SAME, AND METHODS FOR THEIR USE” (Carmot Therapeutics, Inc., priority 2022, published 2026).

Molecules are shown by their SMILES. pEC50: −log10 of the molar value.

In general, pEC50 refers to −log10 of the EC50, conventionally taken in molar units. The low end stands for a large EC50, the high end for a small EC50.

For the assay, the target named is T1, human GLP-1 receptor (Homo sapiens, UniProt P43220).
T1 construct: expressed in transfected cells
T1 sequence (P43220 24-463): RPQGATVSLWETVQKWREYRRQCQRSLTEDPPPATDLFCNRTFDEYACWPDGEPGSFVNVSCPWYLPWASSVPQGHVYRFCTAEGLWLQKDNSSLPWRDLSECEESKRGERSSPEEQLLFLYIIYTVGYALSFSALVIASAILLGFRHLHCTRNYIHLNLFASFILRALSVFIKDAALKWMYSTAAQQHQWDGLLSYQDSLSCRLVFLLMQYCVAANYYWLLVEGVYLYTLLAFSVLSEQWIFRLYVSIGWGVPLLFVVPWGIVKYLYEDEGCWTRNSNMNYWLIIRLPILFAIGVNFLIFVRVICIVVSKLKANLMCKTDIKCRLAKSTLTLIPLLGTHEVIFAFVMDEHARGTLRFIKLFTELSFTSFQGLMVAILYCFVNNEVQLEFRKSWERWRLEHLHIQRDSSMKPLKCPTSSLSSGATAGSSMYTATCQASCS
Description: GLP-1R cAMP assay (cAMP accumulation in CHO cells stably overexpressing the human GLP-1 receptor, HitHunter kit). It counts as cell-based. The conditions noted are these: CHO cells stably overexpressing human GLP-1R, 30 min, 20-point dose response in triplicate. Here is the method:
CAMP accumulation was measured in Chinese hamster ovary (CHO) cells (10,000 cells/well) stably overexpressing the human GLP-1 receptor using the HitHunter CAMP Assay for Small Molecules Kit (Eurofins). Briefly, cells were grown in Ham's F12 Nutrient Mix with 10% FBS, and lifted with Cell Dissociation Buffer, Enzyme free, PBS based (ThermoFisher). Cells were pelleted, and resuspended in Hank's buffered saline solution with 10 mM HEPES, and 625 μM 3-isobutyl-1-methylxanthine. The anti-cAMP antibody reagent was then added to cells at a 1:2 ratio and 5 μL of mixture was seeded in 384-well small volume white assay plates, at 10,000 cells/well. Cells were then treated with 50 nL compound using an ECHO 550 acoustic dispenser (Labcyte) in a 20-point dose response format in triplicate for 30 min. Cells were then lysed, and detection reagents added according to the manufacturer's protocol. After overnight incubation, luminescence was measured using a Perkin Elmer Envision plate reader. Dose response curves were analyzed using GraphPad Prism 9.0.
In the Table, EC50 values are designated as follows: • A: 0 nM<EC50<0.1 nM; • B: 0.1 nM≤EC50<1.0 nM; • C: 1.0 nM≤EC50<10.0 nM; • D: 10.0 nM≤EC50<100 nM; • E: 100 nM≤EC50<500 nM; and • F: ≥500 nM
In general terms: cAMP levels reflect the balance of adenylyl cyclase and phosphodiesterase activity.
`C[C@H]1C[C@@H](Oc2ccnc(COc3ncc(C#N)cc3F)n2)CCN1Cc1nc2c(F)cc(C(=O)O)cc2n1C[C@@H]1CCO1` [Compound 607, 2-{[(2S,4S)-4-[(2-{[(5-Cyano-3-fluoropyridin-2-yl)oxy]methyl}pyrimidin-4-yl)oxy]-2-methylpiperidin-1-yl]methyl}-4-fluoro-1-[(oxetan-2-yl)methyl]-1H-1,3-benzodiazole-6-carboxylic acid] gave a pEC50 greater than 10.00.
As for `CC[C@@H]1C[C@H](Oc2ccnc(COc3ccc(C#N)cc3F)n2)CCN1Cc1nc2ccc(C(=O)O)cc2n1C[C@@H]1CCO1` [Compound 586, 2-{[(2R,4R)-4-({2-[(4-Cyano-2-fluorophenoxy)methyl]pyrimidin-4-yl}oxy)-2-ethylpiperidin-1-yl]methyl}-1-{[(2S)-oxetan-2-yl]methyl}-1H-1,3-benzodiazole-6-carboxylic acid], the pEC50 was 8.00 to 9.00.
For the compound `O=C(O)c1cc(F)c2nc(CN3CCC(Oc4ccnc(COc5ncc(F)cc5F)n4)CC3)n(C[C@@H]3CCO3)c2c1` [Compound 628, (S)-2-((4-((2-(((3,5-difluoropyridin-2-yl)oxy)methyl)pyrimidin-4-yl)oxy)piperidin-1-yl)methyl)-4-fluoro-1-(oxetan-2-ylmethyl)-1H-benzo[d]imidazole-6-carboxylic acid], the pEC50 was 9.00 to 10.00.
Consider `C[C@H]1C[C@@H](Oc2ccnc(COc3ncc(C#N)cc3F)c2)CCN1Cc1nc2c(F)cc(C(=O)O)cc2n1C[C@@H]1CCO1` [Compound 625, 2-(((2S,4S)-4-((2-(((5-Cyano-3-fluoropyridin-2-yl)oxy)methyl)pyridin-4-yl)oxy)-2-methylpiperidin-1-yl)methyl)-4-fluoro-1-(((S)-oxetan-2-yl)methyl)-1H-benzo[d]imidazole-6-carboxylic acid], for which the pEC50 is 8.00 to 9.00.
`C[C@H]1C[C@@H](Oc2ccnc(COc3ccc(F)cc3F)n2)CCN1Cc1nc2ccc(C(=O)O)cc2n1CC1(F)COC1` [Compound 582, 2-{[(2S,4S)-4-({2-[(2,4-Difluorophenoxy)methyl]pyrimidin-4-yl}oxy)-2-methylpiperidin-1-yl]methyl}-1-[(3-fluorooxetan-3-yl)methyl]-1H-1,3-benzodiazole-6-carboxylic acid] gave a pEC50 of 9.00 to 10.00.
For the compound `CC(c1nc2ccc(C(=O)O)cc2n1C[C@@H]1CCO1)N1CCC(Oc2ccnc(COc3ccc(F)cc3F)n2)CC1` (stereo partly drawn) [Compound 565, 2-(1-(4-((2-((2,4-Difluorophenoxy)methyl)pyrimidin-4-yl)oxy)piperidin-1-yl)ethyl)-1-(((S)-oxetan-2-yl)methyl)-1H-benzo[d]imidazole-6-carboxylic acid], the pEC50 is 8.00 to 9.00.
Regarding `C[C@H]1C[C@@H](Oc2ccnc(COc3ncc(Cl)cc3F)n2)CCN1Cc1nc2ccc(C(=O)O)cc2n1CCOCC(F)(F)F` [Compound 595, 2-{[(2S,4S)-4-[(2-{[(5-chloro-3-fluoropyridin-2-yl)oxy]methyl}pyrimidin-4-yl)oxy]-2-methylpiperidin-1-yl]methyl}-1-[2-(2,2,2-trifluoroethoxy)ethyl]-1H-1,3-benzodiazole-6-carboxylic acid], the pEC50 was 9.00 to 10.00.
`C[C@H]1C[C@@H](Oc2ccnc(COc3ccc(F)cc3F)n2)CCN1Cc1nc2ccccc2n1C[C@@H]1CCO1` [Compound 633, 2-(((2S,4S)-4-((2-((2,4-Difluorophenoxy)methyl)pyrimidin-4-yl)oxy)-2-methylpiperidin-1-yl)methyl)-1-(((S)-oxetan-2-yl)methyl)-1H-benzo[d]imidazole] gave a pEC50 of 7.00 to 8.00.
For `N#Cc1cnc(OCc2nccc(OC3CCN(Cc4nc5c(F)cc(C(=O)O)cc5n4C[C@@H]4CCO4)CC3)n2)c(F)c1` [Compound 634], the pEC50 was 9.00 to 10.00.
In turn, `C[C@H]1C[C@@H](Oc2ccnc(COc3ncc(F)cc3F)n2)CCN1Cc1nc2ccc(C(=O)O)cc2n1C[C@@H]1CCO1` [Compound 566, 2-{[(2S,4S)-4-[(2-{[(3,5-Difluoropyridin-2-yl)oxy]methyl}pyrimidin-4-yl)oxy]-2-methylpiperidin-1-yl]methyl}-1-{[(2S)-oxetan-2-yl]methyl}-1H-1,3-benzodiazole-6-carboxylic acid] had a pEC50 of 9.00 to 10.00.
Turning to `C[C@H]1C[C@@H](Oc2ccnc(COc3ccc(F)cc3C#N)n2)CCN1Cc1nc2ccc(C(=O)O)cc2n1CCOCC(F)(F)F` [Compound 601, 2-{[(2S,4S)-4-({2-[(2-cyano-4-fluorophenoxy)methyl]pyrimidin-4-yl}oxy)-2-methylpiperidin-1-yl]methyl}-1-[2-(2,2,2-trifluoroethoxy)ethyl]-1H-1,3-benzodiazole-6-carboxylic acid], the pEC50 is greater than 10.00.
In turn, `C[C@H]1C[C@@H](Oc2ccnc(COc3ncc(C#N)cc3F)n2)CCN1Cc1nc2ccc(C(=O)O)cc2n1C[C@@H]1CCCO1` [Compound 631, 2-(((2S,4S)-4-((2-(((5-cyano-3-fluoropyridin-2-yl)oxy)methyl)pyrimidin-4-yl)oxy)-2-methylpiperidin-1-yl)methyl)-1-(((S)-tetrahydrofuran-2-yl)methyl)-1H-benzo[d]imidazole-6-carboxylic acid] showed a pEC50 of 9.00 to 10.00.
On to `C[C@H]1C[C@@H](Oc2ccnc(COc3ccc(F)cc3C#N)n2)CCN1Cc1nc2ccc(C(=O)O)cc2n1C[C@H]1CCO1` [Compound 561, 2-{[(2S,4S)-4-({2-[(2-cyano-4-fluorophenoxy)methyl]pyrimidin-4-yl}oxy)-2-methylpiperidin-1-yl]methyl}-1-{[(2R)-oxetan-2-yl]methyl}-1H-1,3-benzodiazole-6-carboxylic acid], for which the negative logarithm of the EC50 (pEC50) is 9.00 to 10.00.
`C[C@H]1C[C@@H](Oc2ccnc(COc3ncc(C#N)cc3F)n2)CCN1Cc1nc2ccc(C(=O)O)cc2n1CCOCC(F)(F)F` [Compound 635, 2-(((2S,4S)-4-((2-(((5-Cyano-3-fluoropyridin-2-yl)oxy)methyl)pyrimidin-4-yl)oxy)-2-methylpiperidin-1-yl)methyl)-1-(2-(2,2,2-trifluoroethoxy)ethyl)-1H-benzo[d]imidazole-6-carboxylic acid] showed a pEC50 of 9.00 to 10.00.
`C[C@H]1C[C@@H](Oc2ccnc(COc3ccc(F)cc3F)n2)CCN1Cc1nc2ccc(C(=O)O)cc2n1C[C@@H]1CCOC1` [Compound 584, 2-{[(2S,4S)-4-({2-[(2,4-Difluorophenoxy)methyl]pyrimidin-4-yl}oxy)-2-methylpiperidin-1-yl]methyl}-1-{[(3S)-oxolan-3-yl]methyl}-1H-1,3-benzodiazole-6-carboxylic acid] showed a pEC50 of 9.00 to 10.00.
Under `C[C@H]1C[C@@H](Oc2ccnc(COc3ccc(F)cc3F)n2)CCN1Cc1nc2ccc(C(=O)O)cc2n1CC1(C(F)F)COC1` [Compound 583, 1-{[3-(difluoromethyl)oxetan-3-yl]methyl}-2-{[(2S,4S)-4-({2-[(2,4-difluorophenoxy)methyl]pyrimidin-4-yl}oxy)-2-methylpiperidin-1-yl]methyl}-1H-1,3-benzodiazole-6-carboxylic acid] stands 9.00 to 10.00; under `C[C@H]1C[C@@H](Oc2ccnc(COc3ccc(F)cc3F)n2)CCN1Cc1nc2ccc(C(=O)O)cc2n1C[C@@H]1CCS1(=O)=O` [Compound 611, 2-(((2S,4S)-4-((2-((2,4-difluorophenoxy)methyl)pyrimidin-4-yl)oxy)-2-methylpiperidin-1-yl)methyl)-1-(((S)-1,1-dioxidothietan-2-yl)methyl)-1H-benzo[d]imidazole-6-carboxylic acid], 9.00 to 10.00.
